Laboratory results: patent US12371456B2, “Proteins for the treatment of epithelial barrier function disorders” (Genevive, Inc., priority 2017, dated 2025)

Legend:
[1] = tested on: DSS model of inflammatory bowel disease; experiment: DSS model: colon length and colon weight to length ratio; type: in vivo, C57BL/6 mice; details: DSS treated mice
Method: Eight-week old C57BL/6 mice were housed 5 animals were cage and given food and water ad libitum for 7 days. Following the 7-day acclimation period, treatments were initiated concurrently with addition of 2.5% DSS to the drinking water. […] The mice were treated with 2.5% dextran sodium sulfate (DSS) in their drinking water for 6 days. Treatments were continued with SG-14 or […]-GLP2 twice a day (b.i.d.) in the morning and evening (every 8 and 16 hr) with i.p. injections at 50 nmoles/kg. Fresh 2.5% DSS drinking water was prepared every 2 days. Colon length was measured in mice included in the DSS model described in Example 7. […] The graphs in FIG. 10 and FIG. 11 represent data pooled from the single experiment (n=10).

[2] = tested on: HCT8 enterocyte and HT29-MTX goblet cell lines; experiment: Oris Cell Migration assay (epithelial cell wound healing); type: cell-based, human; details: 48 hours; SG-14 1 μg/ml, EGF 30 ng/ml, staurosporine 100 nM; FIG. 5
Description: The 96 well Oris Cell Migration assay containing plugs preventing cell attachment in the center of each well was used according to the manufacturer's instructions (Platypus Technologies, Madison, WI). The migration assay plates were warmed to room temperature prior to use and plugs were removed from 100% confluence wells prior to cell addition. The HCT8 enterocyte and HT29-MTX goblet cell lines were used at a 9:1 ratio with a total of 5×10^4 total cells added per well (4.5×10^4 HCT8 cells and 0.5×10^4 HT29-MTX cells). Cells were incubated at 37° C.+5% CO2 for 24 hours. Plugs were then removed from all control and sample wells. Control wells included cells treated with the diluent vehicle as the blank, 30 ng/ml epidermal growth factor (EGF) as the positive control, and 100 nM staurosporine as the negative control, all diluted in cRPMI. Sample wells contained SG-14 protein at a concentration of 1 μg/ml diluted in cRPMI. 100% and 0% wells were cultured in cRPMI. […] The green fluorescent viability dye […] was added to all wells at a concentration of […] in PBS containing 0.9 mM CaCl2) and 0.5 mM MgCl2, incubated for 30 min at 37° C.+5% CO2, the dye was removed and cells were washed in PBS containing 0.9 mM CaCl2) and 0.5 mM MgCl2 and fluorescence was measured. […] Samples were normalized between 100% and 0% samples and values expressed as a percent growth.

[3] = tested on: HCT8 enterocytes and HT29-MTX goblet cells (epithelial monolayer) co-cultured with U937 monocytes; experiment: Co-culture trans-epithelial electrical resistance (TEER) assay, barrier disruption by heat killed E. coli; type: cell-based, human; details: staurosporine 100 nM, negative control
Method: Assays were performed as described below in trans-well plates where co-cultures of multiple cell types were performed utilizing a permeable membrane to separate cells. In the apical (top) chamber, human colonic epithelial cells, consisting of a mixture of enterocytes and goblet cells, were cultured until cells obtained tight junction formation and barrier function capacity as assessed by measurement of trans-epithelial electrical resistance (TEER). In the basolateral chamber, monocytes were cultured separately. Epithelial cells were primed with inflammatory cytokines.
Cell culture. The HCT8 human enterocyte cell line (ATCC Cat. No. CCL-244) was maintained in RPMI-1640 medium supplemented with 10% fetal bovine serum, 100 IU/ml penicillin, 100 µg/ml streptomycin, 10 µg/ml gentamicin and 0.25 µg/ml amphotericin (cRPMI). HT29-MTX human goblet cells (Sigma-Aldrich (St. Louis, MO; Cat. No. 12040401) were maintained in DMEM medium with 10% fetal bovine serum, 100 IU/ml penicillin, 100 µg/ml streptomycin, 10 µg/ml gentamicin and 0.25 µg/ml amphotericin (cDMEM). Epithelial cells were passaged by trypsinization and were used between 5 and 15 passages following thawing from liquid nitrogen stocks. U937 monocytes (ATCC Cat. No. 700928) were maintained in cRPMI medium as a suspension culture, and split by dilution as needed to maintain cells between 5×10^5 and 2×10^6 cells/ml. U937 cells were used up to passage 18 following thawing from liquid nitrogen stocks.
Epithelial cell culture. A mixture of HCT8 enterocytes and HT29-MTX goblet cells were plated at a 9:1 ratio, respectively, in the apical chamber of the transwell plate as described previously (Berget et al., 2017, Int J Mol Sci, 18:1573; Beduneau et al., 2014, Eur J Pharm Biopharm, 87:290-298). […] Epithelial cells were trypsinized from culture flasks and viable cells determined by trypan blue counting. […]
Co-culture assay. […] Trans-epithelial electrical resistance (TEER) readings were measured after the IFN-γ treatment and were used as the pre-treatment TEER values. […]

[4] = set-up: species or system mice; details: mouse, in vivo, ip

Gly2-GLP2: a stable analog of glucagon-like peptide 2 (GLP2); positive control in DSS model (HGDGSFSDEMNTILDNLAARDFINWLIQTKITD; Glucagon-like peptide 2; UniProt P01275 146-178, looked up, variant A2G) [reference compound]
Colon length ([1]; FIG. 10): significant improvement in colon length | Ratio between colon weight and length ([1]; FIG. 11): significant reduction

CN[C@@H]1C[C@H]2O[C@@](C)([C@@H]1OC)n1c3ccccc3c3c4c(c5c6ccccc6n2c5c31)C(=O)NC4 [staurosporine, reference compound]
Wound healing (percent growth) [2]: suppressing cell proliferation | Effect on TEER (control compound) [3]: drastic decrease in TEER

EGF: epidermal growth factor, positive control in wound healing assay
Wound healing (percent growth) [2]: increasing proliferation

fluorescently labeled bovine serum albumin: fluorescently labeled bovine serum albumin used for tracking after i.p. injection
Time at which protein reached the colon after i.p. delivery [4]: 6 h
